The values that follow come from US11753445B2, “Therapeutic peptides” (COHBAR, INC., priority 2016, dated 2023).

The test system of one data set is Human Primary Adipocytes. In words: Free fatty acid levels in cultured human primary adipocytes, forskolin stimulated (Example 5). As to conditions: forskolin 1 μM; for Free Fatty Acid Levels in Human Primary Adipocytes Expressed as a Percent of Forskolin Control: Percent of Control Value: test peptides 25 μM. The class given is cell-based. A digest of the protocol: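 Differentiated human primary adipocytes (14–24 days) were exposed to peptides at 25 μM for 18–20 h and 1 h, then stimulated with 1 μM forskolin plus peptide for 3 h at 37 °C. Medium free fatty acids were measured colorimetrically (540 nm), background-corrected and expressed relative to forskolin-only cells.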

Data set [1] concerns 3T3-L1 Adipocytes. In words: Free fatty acid levels in cultured mouse 3T3-L1 adipocytes, isoproterenol stimulated (Example 2). It is filed as cell-based. As to conditions: isoproterenol 1 nM; for Free Fatty Acid Levels in 3T3-L1 Adipocytes Expressed as a Percent of Isoproterenol Control: Percent of Control Value: test peptides 25 μM. The procedure, abridged:
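Release of free fatty acids, read at 540 nm, was stimulated with 1 nM isoproterenol for 3 h in mouse 3T3-L1 adipocytes (12–17 days of differentiation). Cells were pre-exposed to 25 μM peptide for 18–20 h plus 1 h, with peptide kept in during stimulation. Values are background-subtracted and normalised to isoproterenol alone.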

A short description of data set [2]: Stability in monkey plasma (Example 16). The class given is in vitro ADME. The settings on record: Monkey plasma 37° C., peptide 10 uM; for remaining at 1 h, 10 uM: 60 min, read-out: % Remaining at Each Time Point: 60 min; for remaining at 2 h, 10 uM: 120 min, read-out: % Remaining at Each Time Point: 120 min; for remaining at 3 h, 10 uM: 180 min, read-out: % Remaining at Each Time Point: 180 min.

A short description of data set [3]: Stability in mouse plasma, peptides 10 uM (Example 15). It is filed as in vitro ADME. The settings on record: mouse plasma 37° C., peptide 10 uM; for remaining at 0.25 h, 10 uM / remaining at 0.5 h, 10 uM / remaining at 1 h, 10 uM / remaining at 2 h, 10 uM / remaining at 3 h, 10 uM: pooled mouse plasma; for remaining at 0.25 h, 10 uM: 15 min, read-out: % Remaining at Each Time Point: 15 min; for remaining at 0.5 h, 10 uM: 30 min, read-out: % Remaining at Each Time Point: 30 min; for remaining at 1 h, 10 uM: 60 min, read-out: % Remaining at Each Time Point: 60 min; for remaining at 2 h, 10 uM: 120 min, read-out: % Remaining at Each Time Point: 120 min; for remaining at 3 h, 10 uM: 180 min, read-out: % Remaining at Each Time Point: 180 min. The method, then: Peptides (10 uM) were incubated in pooled mouse plasma at 37° C. and samples were removed and immediately analyzed for the concentration of intact peptide by LC/MS/MS over the course of 3 hours. The percent of peptide remaining in plasma at each time point was calculated relative to the initial peak area (Table 13).

Data set [4] can be described thus: Stability in human plasma (Example 16). It is filed as in vitro ADME. As to conditions: Human plasma 37° C., peptide 10 uM; for remaining at 1 h, 10 uM / remaining at 2 h, 10 uM / remaining at 3 h, 10 uM: pooled human plasma; for remaining at 1 h, 10 uM: 60 min, read-out: % Remaining at Each Time Point: 60 min; for remaining at 2 h, 10 uM: 120 min, read-out: % Remaining at Each Time Point: 120 min; for remaining at 3 h, 10 uM: 180 min, read-out: % Remaining at Each Time Point: 180 min. The method, then: Peptides (10 uM) were incubated in pooled mouse or human plasma at 37° C. and samples were removed and immediately analyzed for the concentration of intact peptide by LC/MS/MS over the course of 3 hours. The percent of peptide remaining in plasma at each time point was calculated relative to the initial peak area (Table 14).

Data set [5] deals with 3T3-L1 Adipocytes. In words: Free fatty acid levels in cultured mouse 3T3-L1 adipocytes, isoproterenol stimulated (Example 17). The settings on record: insulin 100 nM; 3T3-L1 adipocytes; isoproterenol 1 nM. It is filed as cell-based. The method, then:
Mouse 3T3-L1 cells were seeded at a density between 1,000-20,000 cells per well on 96-well, 48-well, or 24-well plates in Pre-adipocyte Medium (Zen-Bio, Durham, N.C.) and grown to confluence at 37° C. in a humidified atmosphere of 5% CO2/95% air. Two days after confluence, cells were placed in Adipocyte Differentiation Medium (Zen-Bio, Durham, N.C.) and cultured for three additional days at 37° C. in a humidified atmosphere of 5% CO2/95% air. The culture media was then replaced with Adipocyte Maintenance Medium (Zen-Bio) and the cells were maintained for an additional 9-14 days at 37° C. in a humidified atmosphere of 5% CO2/95% air with partial medium replacement every other day. Following 12-17 days of differentiation, test peptides were added at a final concentration of 25-50 μM and incubated for 18-20 hours in Adipocyte Maintenance Medium at 37° C. in a humidified atmosphere of 5% CO2/95%. After the media incubation, media was removed and exchanged with Assay Buffer (Zen-Bio) containing isoproterenol (1 nM) (added to all samples except untreated controls) and the test peptides. Cells were incubated for a further 3 hours at 37° C. in a humidified atmosphere of 5% CO2/95%. Free fatty acid concentrations in the media were determined using a Free Fatty Acid Assay Kit (Zen-Bio) according to the manufacturer's instructions using a plate reader (540 nm).
Absorbance values were corrected for untreated background and expressed relative to isoproterenol treated cells. Treatment with isoproterenol (1 nM) alone was used as the free fatty acid level stimulatory control. The relative standard deviation of the isoproterenol control was <10%. […] Free fatty acid levels for insulin (100 nM) treatment were <5% of the isoproterenol control value.

Regarding H-MRWQEMGYIFYPRKLA-OH [compound 21], in the data set with Human Primary Adipocytes, the “Free Fatty Acid Levels in Human Primary Adipocytes Expressed as a Percent of Forskolin Control: Percent of Control Value” is listed as 113%. Moreover, the “Free Fatty Acid Levels in 3T3-L1 Adipocytes Expressed as a Percent of Isoproterenol Control: Percent of Control Value” with 3T3-L1 Adipocytes [1] is listed as 45.1%.

For H-MRWQEMGYIFYPRKLR-OH [compound 2], in data set [2], the “% Remaining at Each Time Point: 0 min” value was 100%; the fraction remaining at 1 h, 10 uM is 72.8%; the amount remaining at 2 h, 10 uM stood at 39.8%; the share remaining at 3 h, 10 uM came to 23.4%. For the same substance, the “Free Fatty Acid Levels in Human Primary Adipocytes Expressed as a Percent of Forskolin Control: Percent of Control Value” with Human Primary Adipocytes is 111%. Moreover, in data set [3], the “% Remaining at Each Time Point: 0 min” value stood at 100%; the amount remaining at 0.25 h, 10 uM stood at 78.3%; the share remaining at 0.5 h, 10 uM was 38.9%; the share remaining at 1 h, 10 uM was 9.6%. Moreover, in data set [3], the fraction remaining at 2 h, 10 uM stood at 0.8% and the share remaining at 3 h, 10 uM was determined as 0.4%. In addition, in the data set with 3T3-L1 Adipocytes [1], the “Free Fatty Acid Levels in 3T3-L1 Adipocytes Expressed as a Percent of Isoproterenol Control: Percent of Control Value” was found to be 63.3%. In data set [4], the “% Remaining at Each Time Point: 0 min” value is 100%; the share remaining at 1 h, 10 uM came out at 56.3%; the fraction remaining at 2 h, 10 uM was found to be 44.7%; the fraction remaining at 3 h, 10 uM was 38.4%.

For H-MRWQEMGYIFYPRNLR-OH [compound 213], the “Free Fatty Acid Levels in Human Primary Adipocytes Expressed as a Percent of Forskolin Control: Percent of Control Value” in the data set with Human Primary Adipocytes was 90.8%. In addition, in the data set on 3T3-L1 Adipocytes [1], the “Free Fatty Acid Levels in 3T3-L1 Adipocytes Expressed as a Percent of Isoproterenol Control: Percent of Control Value” turned out to be 48.1%.

As to H-MRWQEMNYIFYPR-OH [compound 208], in data set [2], the “% Remaining at Each Time Point: 0 min” value is given as 100%; the fraction remaining at 1 h, 10 uM amounted to 106%; the share remaining at 2 h, 10 uM is 89%; the amount remaining at 3 h, 10 uM was found to be 68%. Besides, the “Free Fatty Acid Levels in Human Primary Adipocytes Expressed as a Percent of Forskolin Control: Percent of Control Value” in the data set with Human Primary Adipocytes came out at 90.2%. Besides, in data set [3], the “% Remaining at Each Time Point: 0 min” value worked out at 100%; the share remaining at 0.25 h, 10 uM was 77%; the share remaining at 0.5 h, 10 uM was found to be 51.8%; the amount remaining at 1 h, 10 uM worked out at 21%. Besides, in data set [3], the amount remaining at 2 h, 10 uM is 3.94% and the share remaining at 3 h, 10 uM turned out to be 1.09%. The “Free Fatty Acid Levels in 3T3-L1 Adipocytes Expressed as a Percent of Isoproterenol Control: Percent of Control Value” in the data set on 3T3-L1 Adipocytes [1] is 57.9%. In addition, in data set [4], the “% Remaining at Each Time Point: 0 min” value is recorded as 100%; the share remaining at 1 h, 10 uM stood at 105%; the fraction remaining at 2 h, 10 uM came out at 86.6%; the share remaining at 3 h, 10 uM was determined as 85.4%.

For the substance H-MRWQEMQYIFYPRALR-OH [compound 219], the “Free Fatty Acid Levels in Human Primary Adipocytes Expressed as a Percent of Forskolin Control: Percent of Control Value” in the data set on Human Primary Adipocytes amounted to 84.0%. For the same substance, the “Free Fatty Acid Levels in 3T3-L1 Adipocytes Expressed as a Percent of Isoproterenol Control: Percent of Control Value” with 3T3-L1 Adipocytes [1] was 38.9%.

With H-RWQEMNYIFYPR-OH [compound 210], in data set [2], the “% Remaining at Each Time Point: 0 min” value came to 100%; the share remaining at 1 h, 10 uM came out at 105%; the amount remaining at 2 h, 10 uM came out at 87.9%; the fraction remaining at 3 h, 10 uM was found to be 77.9%. Moreover, the “Free Fatty Acid Levels in Human Primary Adipocytes Expressed as a Percent of Forskolin Control: Percent of Control Value” with Human Primary Adipocytes is given as 95.2%. Also, in data set [3], the “% Remaining at Each Time Point: 0 min” value is 100%; the amount remaining at 0.25 h, 10 uM was determined as 85.7%; the share remaining at 0.5 h, 10 uM amounted to 79.5%; the fraction remaining at 1 h, 10 uM was found to be 61.9%. Further, in data set [3], the fraction remaining at 2 h, 10 uM worked out at 35.4% and the fraction remaining at 3 h, 10 uM came out at 23%. For the same substance, the “Free Fatty Acid Levels in 3T3-L1 Adipocytes Expressed as a Percent of Isoproterenol Control: Percent of Control Value” in the data set with 3T3-L1 Adipocytes [1] is recorded as 44.6%. In addition, in data set [4], the “% Remaining at Each Time Point: 0 min” value worked out at 100%; the fraction remaining at 1 h, 10 uM was 106%; the amount remaining at 2 h, 10 uM was 90.8%; the fraction remaining at 3 h, 10 uM amounted to 95.8%.

For H-RWQEMQYIFYPR-OH [compound 211], the “Free Fatty Acid Levels in Human Primary Adipocytes Expressed as a Percent of Forskolin Control: Percent of Control Value” in the data set with Human Primary Adipocytes amounted to 90.1%. In data set [3], the “% Remaining at Each Time Point: 0 min” value amounted to 100%; the share remaining at 0.25 h, 10 uM amounted to 85.2%; the amount remaining at 0.5 h, 10 uM worked out at 72.8%; the share remaining at 1 h, 10 uM is 52.3%. In addition, in data set [3], the fraction remaining at 2 h, 10 uM is 30.3% and the share remaining at 3 h, 10 uM was found to be 17.9%. Also, the “Free Fatty Acid Levels in 3T3-L1 Adipocytes Expressed as a Percent of Isoproterenol Control: Percent of Control Value” in the data set on 3T3-L1 Adipocytes [1] was determined as 29.9%.

Turning to Insulin [reference compound], the “Free fatty acid levels, % of the isoproterenol control value” is reported as under 5% with 3T3-L1 Adipocytes [5] and under 5% in the data set on 3T3-L1 Adipocytes [1] (insulin 100 nM, 3T3-L1 adipocytes). Besides, the “Free fatty acid levels, % of the forskolin control value” with Human Primary Adipocytes (insulin 100 nM, human primary adipocytes) is on record as under 8%.
